From patent US20190216751A1, “Compositions and Methods for the Treatment and Prevention of Cancer” (California State University Northridge, priority 2017, published 2019)

How the values were obtained:
hypusinated eIF5A = assay: Western blot hypusine versus total eIF5A; type: cell-based, mouse, human
Procedure: The inventors sought to determine if the decrease in cell viability is due to the inhibition of post translational modification of eIF5A. To test this, all cell lines were treated with GC7 at 100 μM for 48 hours—which were the time point and concentration at which a decrease in cell viability was seen (FIG. 2B). The inventors then collected, performed a western blot and immunoblotted for hypusine, total eIF5A and β-actin as a loading control (FIG. 3A). […] To test if this effect is dose-dependent, 4T1, 67NR and MCF10CA1a cells were treated with various concentrations of GC7 ranging from 0.1 μM to 100 μM. Protein lysates were then collected after 48 hours of treatment and performed a western blot. […] To validate this in breast cancer cells, the inventors immunoblotted for PEAK1 as well as E-cadherin, hypusine, total eIF5A and β-actin as a loading control (FIG. 3B). […] The inventors next looked at cell viability at lower concentrations of GC7, such as 1 μM and 10 μM, where a decrease in hypusinated eIF5A is still achieved but the decrease in cell viability is not as great in lower concentrations that do still target hypusinated eIF5A (FIG. 3C).
Cell lines were plated in a 6 well plate at 1e5 cells/mL and left to attach overnight. […] Protein concentrations were determined using Bradford Assay. […] Band intensity graphs were quantified using Fiji software after image thresholding.

[1] = tested on: eIF5A localization in 67NR cells; assay: Immunofluorescence, subcellular localization of total eIF5A; type: cell-based, mouse; conditions: 1 and 10 μM GC7, 48 hours
Procedure: Thus, we interrogated the subcellular localization of eIF5A protein using immunofluorescent staining under control as well as 1 and 10 μM GC7 treatment conditions in triple negative breast cancer lines (FIGS. 12A and 12B).
Cells were plated at 1e4 cells/mL at 4 mL in a 6-well plate containing a sterile glass coverslip and allowed to attach overnight. Cells were then treated with appropriate inhibitors at indicated concentrations and time-points. Cells were first fixed using 4% paraformaldehyde for 20 minutes. Cells were then subjected to Triton-X to permeabilize the cells before treatment with specific antibodies in 2% BSA in PBS. After primary antibody incubation for 90 minutes, cells were washed with PBS three times before incubating with secondary antibodies in 2% BSA in PBS for 1 hour. Cells were again washed with PBS three times before set overnight staining with DAPI. Cells were then imaged using a Leica DMI6000 inverted microscope at 100× magnification.

4T1 cells = assay: Cell number by phase-contrast images, with TGFβ; type: cell-based, mouse; conditions: 10 μM each drug, 96-hour time point
Procedure: Next, the inventors investigated whether blockade of HDAC6 and DHPS activity could further suppress TGFβ-induced EMT either independently or simultaneously. To test this, 4T1 cells were treated with either TubA at 10 μM, GC7 at 10 μM or both for 48 hours. At this time point, protein lysates were collected as well as phase-contrast images (FIGS. 6B and 6C). At that same time point, the media was changed and the cells were re-treated with the same drugs at the same concentrations; however, this time with the addition of TGFβ at 2.5 ng/mL. The inventors collected protein lysates and phase-contrast images just one day post TGFβ treatment, calling this the 72-hour time point (FIGS. 6B and 6C). In addition, the inventors collected mRNA, protein lysates, phase-contrast and immunofluorescences images two days post TGFβ treatment, calling this the 96-hour time point (FIGS. 6A, 6B, 6C and 6D).
Images were taken of cells plated on a 6 well plate with appropriate conditions or treatments for experiment using widefield-brightfield phase contrast microscopy on a Leica DMI6000 B inverted microscope at 20× magnification.

## N=C(N)NCCCCCCCN.O=S(=O)(O)O [GC7, N1-Guanyl-1,7-diaminoheptane]
Hypusinated eIF5A; 100 μM GC7, 48 hours, 4T1, 67NR, MCF10AT1k, MCF10CA1h and MCF10CA1a
  decrease in hypusinated eIF5A protein activity: largest decrease in hypusinated eIF5A protein activity
Hypusinated eIF5A; GC7 0.1 μM to 100 μM, 48 hours, 4T1, 67NR and MCF10CA1a
  hypusinated eIF5A levels (band intensity ratio to total eIF5A): consistently decreased
[1]
  nuclear depletion of eIF5A: Nuclear depletion of eIF5A was observed
4T1 cells
  cell number: drastic reduction in cell number
